According to the supplement of paper PMC10307832:

What was measured:
Assay in all cases: relative viability (nuclei count vs DMSO), 5 days (fraction); higher = more cells survive
MK-8033 + Navitoclax = compound: Cn1cc(-c2cnc3ccc4ccc(CS(=O)(=O)NCc5ccccn5)cc4c(=O)c3c2)cn1 [MK-8033] + CC1(C)CCC(c2ccc(Cl)cc2)=C(CN2CCN(c3ccc(C(=O)NS(=O)(=O)c4ccc(N[C@H](CCN5CCOCC5)CSc5ccccc5)c(S(=O)(=O)C(F)(F)F)c4)cc3)CC2)C1 [Navitoclax] (partner 0.5 µM)
Method in brief: (§1)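 Each reported value is a median over duplicate plates. It expresses relative viability: treated-well nuclei count divided by vehicle-well nuclei count. Lung cancer cell lines in 1536-well plates were dosed by pin tool a day after seeding, alone with one drug or with a fixed anchor-drug dose plus five library-drug doses (not always all listed) in √10 steps, and nuclei were counted after 5 days.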

MK-8033 + Pemetrexed = compound: Cn1cc(-c2cnc3ccc4ccc(CS(=O)(=O)NCc5ccccn5)cc4c(=O)c3c2)cn1 [MK-8033] + Nc1nc2[nH]cc(CCc3ccc(C(=O)N[C@@H](CCC(=O)O)C(=O)O)cc3)c2c(=O)[nH]1 [Pemetrexed] (partner 0.2 µM)
Method in brief: as §1

MK-8033 + Foretinib = compound: Cn1cc(-c2cnc3ccc4ccc(CS(=O)(=O)NCc5ccccn5)cc4c(=O)c3c2)cn1 [MK-8033] + COc1cc2c(Oc3ccc(NC(=O)C4(C(=O)Nc5ccc(F)cc5)CC4)cc3F)ccnc2cc1OCCCN1CCOCC1 [Foretinib] (partner 0.25 µM)
Method in brief: as §1

MK-8033 + Dasatinib = compound: Cn1cc(-c2cnc3ccc4ccc(CS(=O)(=O)NCc5ccccn5)cc4c(=O)c3c2)cn1 [MK-8033] + Cc1nc(Nc2ncc(C(=O)Nc3c(C)cccc3Cl)s2)cc(N2CCN(CCO)CC2)n1 [Dasatinib] (partner 0.075 µM)
Method in brief: as §1

Row | Cell Line | relative viability (MK-8033 + Navitoclax; first compound 0.02 µM) | relative viability (MK-8033 + Navitoclax; first compound 0.2 µM) | relative viability (MK-8033 + Navitoclax; first compound 0.6325 µM) | relative viability (MK-8033 + Navitoclax; first compound 2 µM) | relative viability (MK-8033 + Pemetrexed; first compound 0.02 µM) | relative viability (MK-8033 + Pemetrexed; first compound 0.06325 µM) | relative viability (MK-8033 + Pemetrexed; first compound 0.2 µM) | relative viability (MK-8033 + Pemetrexed; first compound 0.6325 µM) | relative viability (MK-8033 + Pemetrexed; first compound 2 µM) | relative viability (MK-8033 + Foretinib; first compound 0.02 µM) | relative viability (MK-8033 + Foretinib; first compound 0.06325 µM) | relative viability (MK-8033 + Foretinib; first compound 0.2 µM) | relative viability (MK-8033 + Foretinib; first compound 0.6325 µM) | relative viability (MK-8033 + Foretinib; first compound 2 µM) | relative viability (MK-8033 + Dasatinib; first compound 0.02 µM) | relative viability (MK-8033 + Dasatinib; first compound 0.06325 µM) | relative viability (MK-8033 + Dasatinib; first compound 0.2 µM) | relative viability (MK-8033 + Dasatinib; first compound 0.6325 µM) | relative viability (MK-8033 + Dasatinib; first compound 2 µM) | relative viability (MK-8033 + Navitoclax; first compound 0.06325 µM)
1 | LOU-NH91 | 0.686 | 0.674 | 0.675 | 0.695 | 0.375 | 0.38 | 0.35 | 0.366 | 0.318 | 0.94 | 0.583 | 0.906 | 0.878 | 0.9 | 0.534 | 0.388 | 0.537 | 0.57 | 0.544 | –
2 | LU99A | 0.751 | 0.794 | 0.819 | 0.593 | 0.192 | 0.183 | 0.158 | 0.168 | 0.187 | 0.903 | 0.716 | 0.834 | 0.841 | 0.743 | 0.61 | 0.442 | 0.626 | 0.542 | 0.445 | 0.667
3 | LXF-289 | 0.945 | 0.923 | 0.979 | 0.941 | 0.963 | 0.874 | 0.901 | 0.883 | 0.837 | 0.965 | 0.934 | 0.938 | 1.04 | 0.965 | 0.197 | 0.213 | 0.208 | 0.189 | 0.215 | 0.928
4 | NCI-H23 | 0.938 | 0.682 | 0.779 | 0.837 | 0.632 | 0.517 | 0.512 | – | 0.497 | 0.826 | 0.932 | 0.961 | 1.02 | 0.942 | 0.844 | 0.827 | 0.64 | 0.928 | 0.587 | 0.777
5 | NCI-H322M | 1.24 | 1.18 | 1.2 | 1.17 | 0.63 | 0.59 | 0.56 | 0.599 | 0.621 | 0.918 | 0.868 | 0.955 | 1.03 | 0.965 | 0.283 | 0.243 | 0.238 | 0.263 | 0.261 | 1.08
6 | NCI-H441 | 0.566 | 0.569 | 0.573 | 0.415 | 0.246 | 0.274 | 0.254 | 0.266 | 0.255 | 0.842 | 1.02 | 0.967 | 0.968 | 0.896 | 0.511 | 0.603 | 0.494 | 0.835 | 0.405 | 0.448
7 | NCI-H460 | 0.975 | 1.01 | 1.19 | 1.04 | 0.0659 | 0.0591 | 0.0606 | 0.0625 | 0.0649 | 1.02 | 0.961 | 0.947 | 1.02 | 1.01 | 0.481 | 0.409 | 0.48 | 0.501 | 0.484 | 0.921
8 | NCI-H520 | 1.14 | 1.02 | 1.06 | 0.975 | 0.625 | 0.697 | 0.607 | 0.652 | 0.602 | 0.992 | 0.777 | 0.762 | 0.844 | 0.556 | 0.193 | 0.187 | 0.211 | 0.221 | 0.168 | 1.03
9 | NCI-H596 | 0.923 | 0.856 | 0.857 | 0.951 | 0.463 | 0.436 | 0.489 | 0.506 | 0.53 | 0.763 | 0.733 | 0.957 | 0.477 | 0.886 | 0.55 | 0.535 | 0.586 | 0.626 | 0.455 | 0.884
10 | NCI-H647 | 1.11 | 1.09 | 1.04 | 0.999 | 0.199 | 0.166 | 0.165 | 0.185 | 0.172 | 1.09 | 1.15 | 1.02 | 1.17 | 1.1 | 0.164 | 0.164 | 0.188 | 0.197 | 0.173 | 1.01
11 | NCI-H838 | 1.13 | 1.01 | 1.22 | 1.08 | 0.249 | 0.246 | 0.227 | 0.27 | 0.22 | 1.05 | 0.993 | 0.994 | 0.89 | 0.954 | 0.258 | 0.281 | 0.259 | 0.279 | 0.247 | 1.14
12 | NCI-H1355 | 0.911 | 0.894 | 0.981 | 0.928 | 1.03 | 0.996 | 0.965 | 1.05 | 1 | 0.888 | 0.886 | 0.961 | 0.862 | 0.909 | 0.647 | 0.655 | 0.645 | 0.698 | 0.763 | 0.897
13 | NCI-H1395 | 1.38 | 1.04 | 1.15 | 1.07 | 0.921 | 0.758 | 0.693 | 0.914 | 0.815 | 0.989 | 0.855 | 0.939 | 0.98 | 0.994 | 0.391 | 0.368 | 0.406 | 0.378 | 0.403 | 1.02
14 | NCI-H1437 | 1.03 | 1.01 | 1 | 0.953 | 0.295 | 0.281 | 0.308 | 0.319 | 0.308 | 1.21 | 1.3 | 1.19 | 1.23 | 1.19 | 0.493 | 0.419 | 0.402 | 0.361 | 0.419 | 1.03
15 | NCI-H1650 | 1.21 | 1.11 | 1.11 | 1.18 | 0.429 | 0.332 | 0.457 | 0.39 | 0.336 | 1.13 | 1.04 | 1.07 | 1.08 | 0.951 | 0.27 | 0.254 | 0.275 | 0.325 | 0.272 | 1.13
16 | NCI-H1651 | 1.06 | 1.07 | 1.13 | 1.02 | 0.633 | 0.561 | 0.56 | 0.685 | 0.582 | 0.844 | 0.637 | 0.879 | 0.692 | 0.648 | 0.412 | 0.331 | 0.285 | 0.433 | 0.388 | 1.03
